In patent publication US20190359560A1, “ANTI-INFLAMMATORY DRUG AND USES THEREOF” (KYUSHU UNIVERSITY, NATIONAL UNIVERSITY CORPORATION, priority 2015, published 2019):
pIC50: −log10 of the molar value. Each block holds one compound with its values, some of them ahead of it.

Columns and labels:
[1] = test system: G0S2; experiment: Inhibition of the expression of G0S2 (stated, test not specified); format: cell-based
Text: (§1) Mouse hepatocytes were homogenized to extract proteins from the cytoplasm and nucleus. […] The chemical formulae of Compounds #142 and #151 are shown in General Formulae (13) and (14), respectively.

[2] = molecular target: T1, Hsd17b4 (Peroxisomal multifunctional enzyme type 2) (Mus musculus, UniProt P51660); experiment: Pull-down assay with avidin beads and LC/MS/MS identification of target protein; format: binding; conditions: proteins from mouse hepatocytes, avidin beads
T1 construct: Mouse hepatocytes were homogenized to extract proteins from the cytoplasm and nucleus; endogenous in cells; host or cells: mouse hepatocytes (homogenate, cytoplasmic and nuclear proteins)
T1 sequence (P51660 1-735): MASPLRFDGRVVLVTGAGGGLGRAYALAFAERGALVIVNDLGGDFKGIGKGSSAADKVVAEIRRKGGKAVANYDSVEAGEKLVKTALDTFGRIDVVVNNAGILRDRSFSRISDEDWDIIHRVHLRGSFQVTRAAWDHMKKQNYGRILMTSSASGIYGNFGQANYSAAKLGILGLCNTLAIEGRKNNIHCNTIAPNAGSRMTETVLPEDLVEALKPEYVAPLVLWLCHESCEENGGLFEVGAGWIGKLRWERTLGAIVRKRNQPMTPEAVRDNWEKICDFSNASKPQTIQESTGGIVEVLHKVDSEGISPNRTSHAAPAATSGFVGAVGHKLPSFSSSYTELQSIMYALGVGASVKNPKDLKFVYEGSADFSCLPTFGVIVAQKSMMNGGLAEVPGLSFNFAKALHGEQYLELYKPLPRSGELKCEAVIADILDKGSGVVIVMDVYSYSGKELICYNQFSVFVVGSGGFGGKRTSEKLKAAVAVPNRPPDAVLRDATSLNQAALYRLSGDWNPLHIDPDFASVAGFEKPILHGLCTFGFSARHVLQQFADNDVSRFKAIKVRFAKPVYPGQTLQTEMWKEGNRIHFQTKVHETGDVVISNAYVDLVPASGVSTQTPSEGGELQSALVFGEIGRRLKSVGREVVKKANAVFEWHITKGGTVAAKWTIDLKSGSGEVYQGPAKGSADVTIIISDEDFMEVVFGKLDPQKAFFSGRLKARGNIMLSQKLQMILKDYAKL
Description: as §1
Thereafter, a pull-down assay was carried out with avidin-labeled magnetic beads (hereinafter, sometimes referred to as “avidin beads”), and the compounds and proteins bound to the avidin beads were subjected to acrylamide gel electrophoresis. The acrylamide gel after subjecting to electrophoresis was negatively stained, a band of a protein specifically bound to Compound #142 was excised, and the protein was identified by an LC/MS/MS analysis.
FIG. 17 is a photograph showing the results of acrylamide gel electrophoresis.

[3] = test system: G0S2 mRNA; experiment: G0S2 mRNA expression in human HepG2 cells; format: cell-based; conditions: 10 μM, 24 hours
[4] = test system: G0S2 mRNA; experiment: G0S2 mRNA expression in Hepa1-6 cells (qRT-PCR); format: cell-based, mouse; conditions: for G0S2 mRNA expression level: 48 hours, vs DMSO; for expression level of G0S2 mRNA: 10 μM, 24 hours
Description: The effect of the compound on the expression level of mRNA of the G0S2 gene was evaluated for the three compounds extracted so far. 24 hours after seeding with Hepa1-6 cells, the cells were exposed to hit compounds at 10 μM and sampling and total RNA extraction were carried out 24 hours later. Subsequently, changes in the expression level of mRNA of the G0S2 gene were measured by a qRT-PCR method.
Hepa1-6 cells were exposed to 10 μM of each of seven derivatives of Compound No. 2 (Examples 2 and 4 to 9) and an effect of the derivative compounds on the expression level of G0S2 mRNA after 24 hours was evaluated.
Therefore, Hepa1-6 cells were exposed to Compound No. 2 and the compound of Example 2 (NS-3-011) in the range of 0.5 to 5 μM and an effect of the compounds on the expression level of endogenous G0S2 mRNA after 48 hours was evaluated.
Subsequently, Hepa1-6 cells were transfected with siRNA against Hsd17b4 or control siRNA in the presence (10 μM) or absence (indicated as “DMSO” in FIG. 22B) of Compound No. 2. Subsequently, each cell was recovered after 48 hours and total RNA was extracted. Subsequently, the expression level of the G0S2 gene was quantified by real-time PCR.

[5] = test system: G0S2 promoter (−2030→+10); experiment: G0S2 promoter (−2030→+10) luciferase assay in Hepa1-6 cells; format: cell-based, mouse; conditions: Hepa1-6 reporter cells, 10 μM, 24 hours
Description: To get closer to the environment in the liver, a cell stably expressing an expression cassette in which a luciferase gene was ligated to the downstream side of the G0S2 promoter (−2030→+10) was constructed in the Hepa1-6 cell, which is a mouse hepatoma-derived cell. Using this cell, an effect of the candidate compounds on the luciferase activity was evaluated in the same manner as in the primary screening described above.

[6] = test system: Bmal1 promoter; experiment: Bmal1 promoter luciferase assay in MEF cell line; format: cell-based; conditions: MEF reporter cell line, 10 μM, 24 hours
Description: Therefore, in order to exclude compounds having an effect on clock genes in normal cells, studies were conducted using the MEF cell line stably expressing an expression cassette in which a luciferase gene was ligated to the downstream side of the Bmal1 promoter.

[7] = test system: nuclear receptor RARα mRNA; experiment: RARα mRNA expression in Hepa1-6 cells (qRT-PCR); format: cell-based, mouse; conditions: 10 μM, 24 hours
[8] = test system: Hsd17b4 gene; experiment: Hsd17b4 knockdown in Hepa1-6 cells: Hsd17b4 gene expression (real-time PCR); format: cell-based, mouse; conditions: 48 hours after transfection, vs control siRNA
Text: Hepα1-6 cells, which are mouse hepatoma-derived cells, were divided into two groups, in which one group was transfected with siRNA against Hsd17b4 and the other group was transfected with control siRNA. The base sequence of the sense strand of siRNA against Hsd17b4 is set forth in SEQ ID NO: 7, and the base sequence of the antisense strand thereof is set forth in SEQ ID NO: 8. In addition, commercially available siRNA (Life Technologies, Inc., the base sequence of the antisense strand is set forth in SEQ ID NO: 4) was used as the control siRNA.
Subsequently, each cell was recovered after 48 hours and total RNA was extracted. Subsequently, the expression level of the Hsd17b4 gene was quantified by real-time PCR.

[9] = test system: DEN-induced hepatitis/hepatoma mouse model; experiment: DEN-induced hepatitis/hepatoma mouse model: hepatoma/tumor formation in liver after 14 weeks; format: in vivo; conditions: 15 mg/kg in drinking water
Description: Mice of a diethylnitrosamine (DEN)-induced hepatitis/hepatoma mouse model were divided into two groups, one receiving siRNA against G0S2 (G0S2 siRNA-administered group) and the other receiving negative control siRNA (control siRNA-administered group). Administration of siRNA to mice was carried out by tail vein administration of 1.6 nmol/mouse using a nucleic acid transfection reagent (trade name “LipoTrust™ EX Oligo <in vivo>, Hokkaido System Science Co., Ltd.). As the siRNA against G0S2, commercially available siRNA (Life Technologies, Inc., trade name “Stealth siRNA”, catalog number “#1320001”, the base sequence of the antisense strand is set forth in SEQ ID NO: 3) was used. As the control siRNA, a commercially available siRNA (Life Technologies, Inc., the base sequence of the antisense strand is set forth in SEQ ID NO: 4) was used.
Subsequently, mice of the same G0S2 siRNA-administered group and control siRNA-administered group as above were prepared. DEN was added to drinking water at a concentration of 80 mg/L from one day after the administration of siRNA to mice, and mice were sacrificed after 14 weeks of breeding and then subjected to analysis. As a result, the onset of hepatoma was inhibited in mice of the G0S2 siRNA-administered group.
(§2) Diethylnitrosamine (DEN) dissolved in water at a concentration of 80 mg/L as drinking water was administered in drinking water to ICR mice, thereby inducing chronic inflammation and hepatoma in the liver. In addition, a group in which 15 mg/kg of the compound of Example 10 (NS-3-086) was administered in drinking water from immediately after the start of administration of DEN in drinking water was prepared. As a control group, a group given tap water as drinking water was used.
Subsequently, mice of each group were sacrificed 14 weeks after the start of administration of DEN in drinking water, and the liver was excised and analyzed. FIGS. 28A, 28B and 28C are photographs of the liver at 14 weeks after the start of administration of DEN in drinking water.

[10] = test system: alanine aminotransferase (ALT) activity in serum; experiment: Serum ALT activity in DEN-induced hepatitis/hepatoma mouse model; format: in vivo; conditions: ICR mice, DEN 80 mg/L, 15 mg/kg in drinking water, 8 weeks and 12 weeks
Description: as §2, with “inflammation” for “inflammation and hepatoma”
Subsequently, 8 weeks and 12 weeks after the start of administration of DEN in drinking water, blood was collected from the tails of mice of each group, and the alanine aminotransferase (ALT) activity in serum was measured using a commercially available kit (“Transaminase CII-Test Wako”, manufactured by Wako Pure Chemical Industries, Ltd.).

[11] = test system: G0S2 promoter; experiment: G0S2 promoter luciferase activity in O-4000E cell line, IC50; format: cell-based, mouse; conditions: Mus musculus, 24 h, O-4000E cells, 24 hours after exposure
Description: The present inventors have searched for a G0S2 gene transcription inhibitor. In searching, the present inventors have received a compound library consisting of 9600 compounds (Core library) from the Open Innovation Center for Drug Discovery, The University of Tokyo. For this compound library, primary screening was carried out by evaluating an effect of compounds on a luciferase activity using a 384-well plate. The drug efficacy evaluation was studied three times for each compound (final concentration of 10 μM) using a cell line stably expressing an expression cassette in which a luciferase gene was ligated to the downstream side of the G0S2 promoter (−2030→−1378), and compounds which reduced a luciferase activity to less than ¼ were extracted from all studies. As a result, 175 compounds were hit.
For the evaluation of drug efficacy of Compound Nos. 1 and 2, which are hit compounds, an IC50 was calculated. The O-4000E cell line was seeded, and Compound Nos. 1 and 2 were serially diluted in […] so as to have final concentrations of 0.15625 μM to 10 μM, followed by exposure of the cells to the compounds. The luciferase activity was measured 24 hours after the exposure, and the curve fitting was carried out to calculate an IC50 of the compounds.
Detailed drug efficacy evaluation at low concentrations was carried out for the compound of Example 2 (NS-3-011) whose drug efficacy at a concentration of less than 10 μM was observed based on the studies so far and which is expected to have an effect equal to or more than that of Compound No. 2. First, using O-4000E cells, IC50 of Compound No. 2 and the compound of Example 2 (NS-3-011) on the G0S2 promoter activity was calculated.

[12] = ICR mice, DEN 80 mg/L, 14 weeks
[13] = liver, 14 weeks after start of DEN in drinking water

Compound: N=C(NCCCCCO)NCc1ccccc1 [Comparative Example 1]
inhibition of the expression of G0S2 [1]: not inhibiting the expression of G0S2

protein specifically bound in pull-down assay (band of about 75 kDa) [2]: Hsd17b4
Compound: CCCCCCCCCCCCNC(=N)NCc1ccc(OCc2cn(CCOCCOCCOCCNC(=O)CCCC[C@@H]3SC[C@@H]4NC(=O)N[C@@H]43)nn2)cc1 [#142]

Compound: CCCCCCNC(=N)NCCc1ccccc1 [Example 6]
expression level of G0S2 mRNA [3]: significant decrease
G0S2 mRNA expression level ([4]; 2.5 μM): significant decrease
G0S2 mRNA expression level ([4]; 5 μM): significant decrease
expression level of G0S2 mRNA [4]: up to the same extent as that of Compound 2

Compound: O=C(Nc1cccc(S(=O)(=O)c2cccc(NC(=O)C3CC3)c2)c1)C1CC1 [Compound No. 3]
G0S2 promoter (−2030→+10) activity (relative value) [5]: less than ½
Bmal1 promoter activity [6]: no significant change
expression level of nuclear receptor RARα mRNA [7]: significant decrease

Compound: siRNA against Hsd17b4: siRNA against Hsd17b4, sense strand SEQ ID NO: 7, antisense strand SEQ ID NO: 8 (sense GAGCAUUAGUCAUUGUGAACGACUU; antisense AAGUCGUUCACAAUGACUAAUGCUC; listed as RNA, chemistry not given here)
expression of Hsd17b4 [8]: inhibited

Compound: CCCCCCCCCCCCNC(=N)NCc1cc(C(F)(F)F)cc(C(F)(F)F)c1 [Example 10]
hepatic hardening [9, 12]: inhibited
tumor formation in the liver [9, 12]: inhibited
mice (n) with large number of tumors [9, 13]: 0 n
mice (n) with number of tumors 0 [9, 13]: 3 n
mice (n) with number of tumors 1 [9, 13]: 3 n
increase in serum ALT activity by DEN drinking water [10]: inhibited

pIC50 [11]: 5.30
Compound: CC(=O)Nc1cccc(NC(=O)CSc2nc(=O)n(N3CCN(C)CC3)c3c2CCC3)c1 [Compound No. 1]
G0S2 promoter (−2030→+10) activity (relative value) [5]: less than ½
Bmal1 promoter activity [6]: no significant change
expression level of nuclear receptor RARα mRNA [7]: no change

Compound: CCCCCCN/C(=N\C(=O)OC(C)(C)C)NCc1ccccc1 [Example 4]
expression level of G0S2 mRNA [4]: up to the same extent as that of Compound 2
